Source: PubChem BioAssay (NCI)
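Cells were grown in 96-well plates and exposed to each compound for 48 hours at five concentrations; endpoints were interpolated linearly between bracketing concentrations, or set to the highest concentration if not reached. TGI: total growth inhibition.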

What was measured:
Assay in all cases: NCI-60 cell line screen, 48 h
[1] = test system: IGROV1 ovarian
[2] = test system: NCI-H460 lung
[3] = test system: SK-MEL-2 melanoma
[4] = test system: RXF 393 renal
[5] = test system: HOP-62 NSCLC
[6] = test system: HL-60(TB) leukemia
[7] = test system: HOP-92 NSCLC
[8] = test system: EKVX NSCLC
[9] = test system: M14 melanoma
[10] = test system: 786-0 renal

SMILES	TGI [1]	TGI [2]	TGI [3]	TGI [4]	TGI [5]	TGI [6]	TGI [7]	TGI [8]	TGI [9]	TGI [10]
Cc1ccc(NC(=O)C(Cc2c[nH]c3ccccc23)NC(=O)Oc2ccccc2)cc1C (stereo not given)	> 100 µM	> 100 µM	> 100 µM	> 100 µM	> 100 µM	> 100 µM	> 100 µM	> 100 µM	> 100 µM	
CCCC(O)c1cn(C(NC(=O)c2ccccc2)P(=O)(OCC)OCC)nn1 (stereo not given)	> 100 µM	> 100 µM	> 100 µM	> 100 µM	> 100 µM	> 100 µM	> 100 µM	> 100 µM	> 100 µM	> 100 µM
COC(=O)C1C=CCON2CCc3c(n(C)c4ccccc34)C12 (stereo not given)	> 100 µM	> 100 µM	> 100 µM	> 100 µM	> 100 µM	> 100 µM	> 100 µM	> 100 µM	> 100 µM	> 100 µM
COC12CCCN1c1ccn(Cc3ccccc3)c(=O)c1C2=O (stereo not given)	> 100 µM	> 100 µM	> 100 µM	> 100 µM		> 100 µM	> 100 µM	> 100 µM	> 100 µM	> 100 µM
Fc1ccc(N=C/C=C/Nc2ccc(F)cc2)cc1	26.2 µM	24.7 µM	26.7 µM	30.5 µM	33 µM	10.3 µM	33.1 µM	25.9 µM	11.9 µM	16.4 µM
COc1cc2oc(=O)cc(C)c2cc1O	> 100 µM	> 100 µM	> 100 µM	> 100 µM	> 100 µM	> 100 µM	> 100 µM	> 100 µM	> 100 µM	> 100 µM
COC(=O)C1=C(OC(=O)/C=C/c2ccccc2)C(C(=O)OC)[C@@]2(O)[C@@H](C(=O)OC)[C@H](C)C[C@@H]1[C@@H]2C(=O)OC (stereo not given in full)	63.3 µM	52.7 µM	91.1 µM	34.1 µM	48.2 µM	> 100 µM	48 µM	65.2 µM	> 100 µM	50 µM
O=c1sc2c(s1)-c1sc(=O)sc1SS2	> 100 µM	> 100 µM	> 100 µM	> 100 µM	> 100 µM	> 100 µM	> 100 µM	> 100 µM	> 100 µM	> 100 µM
COc1cc2cc(C(=O)N3CC(CCl)c4c3cc(NC(=O)OCc3ccc([N+](=O)[O-])cc3)c3ccccc43)[nH]c2c(OC)c1OC (stereo not given)	> 90 µM	> 39.1 µM	> 100 µM	> 100 µM	> 100 µM	> 38.5 µM	> 90.5 µM	> 100 µM	> 100 µM	> 39.3 µM
c1ccc(CN[C@]23C4C5CC6C7C5C2C7[C@@](NCc2ccccc2)(C64)N3Cc2ccccc2)cc1 (stereo not given in full)	> 100 µM	> 100 µM	> 100 µM	> 100 µM	> 100 µM	> 100 µM	> 100 µM	> 100 µM	> 100 µM	> 100 µM
CCCCCc1cc2cc3c(c(O)c2c(=O)[nH]1)C1(CCC3)C(O)=c2c(=O)c3c(=O)cc(OC)c(=O)c=3c(=O)c2=C1O (stereo not given)	3.48 µM	3.12 µM	3.68 µM	1.82 µM	7.67 µM	1.24 µM	1.3 µM	2.83 µM	3.33 µM	2.69 µM
COC(=O)CCc1ccc2c(c1)C(=O)CC2	> 100 µM	> 100 µM	> 100 µM	> 100 µM	> 100 µM	> 100 µM	> 100 µM	> 100 µM	> 100 µM	> 100 µM
CCCCCCCCCCCCc1ccc(S(=O)(=O)O)cc1.[Zn+2]	77.2 µM	> 100 µM		> 100 µM	> 100 µM	> 100 µM	> 100 µM	> 100 µM	> 100 µM	> 100 µM
CCN(CC)c1ccc(N=Nc2ccc([N+](=O)[O-])cc2OC(=O)/C=C/c2ccccc2)c(OC(=O)/C=C/c2ccccc2)c1	> 100 µM	11.1 µM	> 100 µM	> 100 µM	> 100 µM	> 44 µM	> 100 µM	> 100 µM	> 100 µM	> 100 µM
O=C(CCCCCC(=O)N1CC(CCl)c2ccc([N+](=O)[O-])cc21)N1CC(CCl)c2ccc([N+](=O)[O-])cc21 (stereo not given)	> 100 µM	> 100 µM	> 100 µM	> 100 µM	> 100 µM	> 100 µM	> 100 µM	> 100 µM	> 100 µM	> 100 µM
C=C1C(=O)O[C@H]2[C@H]3O[C@@H](C[C@@H]12)[C@@]1(C)CC[C@H](O1)[C@H](C)CCC[C@H]3C	2.74 µM	3.7 µM	4.62 µM	5.24 µM	16.3 µM	1.27 µM	3.48 µM	2.84 µM		2.63 µM
CCOC(=O)c1sc2nc(SC)nc3c2c1NCN3c1ccc(F)c(F)c1	> 100 µM	> 100 µM	> 100 µM	16.7 µM	34.1 µM	> 100 µM	83 µM	> 100 µM	> 100 µM	12.4 µM
O=[N+]([O-])c1ccc(C(Nc2ccccc2)P(c2ccccc2)c2ccccc2)cc1 (stereo not given)	> 100 µM	> 100 µM	> 100 µM	> 100 µM	> 100 µM	> 100 µM	> 100 µM	> 100 µM	> 100 µM	> 100 µM
COc1ccc(NC(=O)CC(=O)n2nc(C)c(N=Nc3cccc(C)c3)c2C)cc1		> 100 µM	> 100 µM	> 100 µM	> 100 µM	> 100 µM	> 100 µM	> 100 µM	> 100 µM	> 100 µM
CC1(C)O[C@@H](CCl)C[C@H](C#N)O1	> 100 µM	> 100 µM	> 100 µM	> 100 µM	> 100 µM	> 100 µM	> 100 µM	> 100 µM	> 100 µM	> 100 µM
COc1ccc(/C=C/C(=O)c2cc(C(C)(C)C)c(O)c(C(C)(C)C)c2)cc1OC	> 100 µM	20.2 µM	16.5 µM	7.69 µM	> 100 µM	17.6 µM	> 100 µM	> 100 µM	> 100 µM	27.4 µM
